Measurements: US20100204156A1, “USE OF THYMOPENTIN AS A THERAPEUTIC AGENT” (priority 2007, published 2010)
Residues, ends and D or L forms follow the SMILES beside them.

What was measured:
CEM-SS cells = assay: Cell viability / cytotoxicity (MTS) in the HIV-1 assay; settings: peptide 10 micrograms per ml, MTS
Human A549 cells [1] = assay: Apoptosis induction assay (Annexin-5); assay type: cell-based; settings: 24 hours, test peptide 10 micrograms per ml
Text: Human A549 cells (carcinomic human alveolar basal epithelial cells) were utilized in the experiments employing the Annexin-5 apoptosis assay. Annexin-5 is a member of a highly conserved protein family that binds acidic phospholipids in a calcium-dependent manner. […] Phosphatidylserine is translocated from the inner side of the plasma membrane to the outer layer when cells undergo death by apoptosis or cell necrosis and serves as a signal by which cell destined for death are recognized by phagocytes. Test peptide—10 micrograms per ml—were exposed for 24 hours to the A549 cells before they were analyzed for signs of apoptosis.

Pseudomonas aeruginosa = Pseudomonas aeruginosa assay; assay type: cell-based; settings: Pseudomonas aeruginosa growth; peptide 10 micrograms per ml; read visually
HUVEC = assay: Endothelial tube formation assay; assay type: cell-based, Human; settings: 20 hours, test peptide 10 micrograms per ml
Text: Positive control was vehicle only.

MRSA = assay: Methicillin Resistant Staphylococcus Aureus (MRSA) assay; assay type: cell-based; settings: MRSA growth; peptide 10 micrograms per ml; read visually
[2] = Cytotoxicity testing (CellTiter 96) in MRC-5 cells; assay type: cell-based; settings: human, MRC-5 cells (human embryonal lung fibroblasts), 6 days incubation, read-out: % Cell viability
Text: (§1) Ganciclovir was used as positive control.

Human A549 cells [3] = assay: Apoptosis prevention assay (Annexin-5, C2 ceramide); assay type: cell-based; settings: A549 cells pretreated 30 min, test peptide 10 micrograms per ml
Text: Human A549 cells (carcinomic human alveolar basal epithelial cells) were utilized in the experiments employing the Annexin-5 apoptosis assay. Annexin-5 is a member of a highly conserved protein family that binds acidic phospholipids in a calcium-dependent manner. […] Phosphatidylserine is translocated from the inner side of the plasma membrane to the outer layer when cells undergo death by apoptosis or cell necrosis and serves as a signal by which cell destined for death are recognized by phagocytes. A549 cells were pretreated for 30 min with test peptide—10 micrograms per ml—followed by the exposure to C2 ceramide. Ceramide mediates cell apoptosis through the activation of the mitogen activating protein kinase (MAPK) and the stress activated kinase (JNK/SAPK). C2 ceramide is a synthetic, membrane soluble analog of ceramide.

[4] = test system: Human Peripheral Blood Mononuclear Cells (PBMC); assay: B cell proliferation assay (SAC plus Interleukin-2, 3H-thymidine); assay type: cell-based; settings: test peptide 10 micrograms per ml
Method: Human Peripheral Blood Mononuclear Cells (PBMC) were obtained from normal human donors. The B cell proliferation was induced by stimulation of the cells with the B cell mitogen Staphylococcus aureus Cowans I (SAC) plus Interleukin-2, either in the absence (positive proliferation control), or in the presence of test peptide—10 micrograms per ml—to examine their effects on the B cell response. 10^5/well PBMC were plated in 96-well microtiter plates and assayed in duplicate with the peptide. Cell cultures were incubated at 37° C. for 3 days in a 5% CO2 incubator and were thereafter pulsed with 1 microCi/well ^3H-thymidine for additional 12 hours of culture. At the end of incubation time, the plates were harvested and the cells counted by liquid scintillation for the incorporation of ^3H-thymidine as a measure of B cell proliferation.

[5] = test system: macrophages differentiated from Human PBMC; assay: TNF alpha production assay (LPS-stimulated macrophages, ELISA); assay type: cell-based; settings: test peptide 10 micrograms per ml, lipopolysaccharide 200 ng/ml, overnight
Method: Human Peripheral Blood Mononuclear Cells (PBMC) were obtained from normal human donors. The macrophages were prepared by adherence of PBMC to the plastic wells of the plates. […] Not stimulated macrophages served as negative background control. After overnight incubation, supernatants from the control and LPS-stimulated cultures were harvested and assayed for TNF alpha production employing a TNF alpha specific ELISA.

[6] = test system: hepatitis B virus (HBV) ayw strain; assay: HBV assay: secreted HBV DNA by real-time TaqMan PCR in HepG2-2.2.15 cells; assay type: cell-based; settings: test peptide 10 micrograms per ml; six days; HBV DNA in supernatant
Text: HepG2-2.2.15 is a stable cell line containing the hepatitis B virus (HBV) ayw strain genome (ATCC Cat. No. CRL-11997). Antiviral compounds blocking any late step of viral replication such as transcription, translation, pregenome encapsidation, reverse transcription, particle assembly and release can be identified and characterized using this cell line. In this assay, an active compound will reduce the production of secreted HBV from cells, measured by utilizing real time quantitative PCR (TaqMan) assay to directly and accurately measure HBV DNA copies.
HepG2-2.2.15 cells were plated in 96-well microtiter plates. After 16-24 hours the confluent monolayer of HepG2-2.2.15 cells was washed and the medium was replaced with complete medium containing test peptide—10 micrograms per ml—in duplicate. […] Six days following the initial administration of the peptide, the cell culture supernatants was collected, treated with pronase and DNAse and then used in a real-time quantitative TaqMan PCR assay. The PCR-amplified HBV DNA was detected in real-time by monitoring increases in fluorescence signals that result from the exonucleolytic degradation of a quenched fluorescence probe molecule that hybridizes to the amplified HBV DNA. […] Antiviral activity was calculated from the reduction in HBV DNA levels (% virus control). […]

[7] = test system: Human Peripheral Blood Mononuclear Cells (PBMC); assay: T cell proliferation assay (PHA, 3H-thymidine); assay type: cell-based; settings: test peptide 10 micrograms per ml
Method: Human Peripheral Blood Mononuclear Cells (PBMC) were obtained from normal human donors. The T cell proliferation was induced by stimulation of the cells with the T cell mitogen phytohemagglutinin (PHA), either in the absence (positive proliferation control), or in the presence of test peptide—10 micrograms per ml—to examine their effects on the T cell proliferating response. 10^5/well PBMC were plated in 96-well microtiter plates and assayed in duplicate with the peptide. Cell cultures were incubated at 37° C. for 3 days in a 5% CO2 incubator and were thereafter pulsed with 1 microCi/well ^3H-thymidine for additional 12 hours of culture. At the end of incubation time, the plates were harvested and the cells counted by liquid scintillation for the incorporation of ^3H-thymidine as a measure of T cell proliferation.

[8] = Cell viability / cytotoxicity (MTS) in the HIV-1 assay; settings: human, CEM-SS cells
[9] = Cell viability (dye uptake) in the HBV assay; assay type: cell-based; settings: human, HepG2-2.2.15 cells, test peptide 10 micrograms per ml
[10] = test system: Primary Human endothelial cells (HUVEC); assay: Endothelial cell migration assay; assay type: cell-based; settings: 22 hours, test peptide 10 micrograms per ml
HCMV strain AD169 = assay: HCMV plaque reduction assay in MRC-5 cells; assay type: cell-based; settings: HCMV AD169 in MRC-5 cells; peptide 10 micrograms per ml; 7-10 days
Text: as §1

Streptococcus pneumoniae = Streptococcus pneumoniae assay; assay type: cell-based; settings: Streptococcus pneumoniae growth; peptide 10 micrograms per ml; read visually
[11] = test system: spleen cells of Ovalbumin-immunized Balb/c mice; assay: Th1/Th2 cytokine profiling assay (Mouse Th1/Th2 Cytokine CBA Kit); assay type: cell-based; settings: test peptide 10 micrograms per ml; Ovalbumin restimulation, 72 hours
Text: The Balb/c mice (originated in 1923, it is a popular strain and is used in many different research disciplines. Also classified as an inbred from the production of 20 or more successive brother-sister matings, the Balb/c mouse is albino and small in size) were immunized on Days 1, 15, and 29 with Ovalbumin (Ovalbumin is the main protein found in egg white, commonly used to stimulate an immunological reaction in test animals) in PBS (5 micrograms/injection). On day 50, spleens of the mice were harvested (3 weeks after last boost with Ovalbumin). […] Thereafter, additional Ovalbumin was added to the cells at 10 micrograms/ml for in vitro restimulation of the cells. 72 hours later, cell supernatants were harvested and assayed using the Becton Dickinson Mouse Th1/Th2 Cytokine CBA Kit. This kit can be used to measure Interleukin-2 (IL-2), Interleukin-4 (IL-4), Interleukin-5 (IL-5), Interferon-γ (IFN-γ), and Tumor Necrosis Factor-α (TNF-α) protein levels in a single sample. The kit performance has been optimized for analysis of physiologically relevant concentrations ([…] levels) of specific cytokine proteins in tissue culture supernatants and serum samples.

HIV-1IIIB = assay: HIV-1 antiviral assay (CPE reduction, MTS) in CEM-SS cells; assay type: cell-based; settings: peptide 10 micrograms per ml, 6 days post-infection
Human A549 cells [12] = assay: Propidium iodide cell cycle assay; assay type: cell-based; settings: 24 hours, test peptide 10 micrograms per ml, FACS
Text: Human A549 cells (carcinomic human alveolar basal epithelial cells) were utilized in the experiments employing the Propidium iodide cell cycle assay. The eukaryotic cell cycle is a series of events that take place in a cell leading to its replication. The regulation of the cell cycle involves steps crucial to the cell, including detecting and repairing genetic damage, and provision of various checks to prevent uncontrolled cell division. The molecular events that control the cell cycle are ordered and directional; that is, each process occurs in a sequential fashion. The cell cycle consists of four distinct phases: G1 phase, S phase, G2 phase (collectively known as interphase) and M phase. M phase is itself composed of two tightly coupled processes: mitosis, in which the cell's chromosomes are divided between the two daughter cells, and cytokinesis, in which the cell's cytoplasm divides forming distinct cells. Activation of each phase is dependent on the proper progression and completion of the previous one. Cells that have temporarily or reversibly stopped dividing are said to have entered a state of quiescence called Go phase. The relatively brief M phase consists of nuclear division and cytoplasmic division. The first phase within interphase, from the end of the previous M phase till the beginning of DNA synthesis is called G1 (G indicating gap or growth). During this phase the biosynthetic activities of the cell resume at a high rate. This phase is marked by synthesis of various enzymes that are required in S phase, mainly those needed for DNA replication. The ensuing S phase starts when DNA synthesis commences; when it is complete, all of the chromosomes have been replicated. The cell then enters the G2 phase, which lasts until the cell enters mitosis. Significant protein synthesis occurs during this phase, mainly involving the production of microtubules, which are required during the process of mitosis. […]
Propidium iodide is an intercalating agent and a fluorescent molecule that can be used to stain DNA. […] After incubation for 40 min at 37° C., cells were analyzed in the FACS.

Compound: Cc1cn([C@H]2C[C@H](N=[N+]=[N-])[C@@H](CO)O2)c(=O)[nH]c1=O [AZT, reference compound]
- % Cell viability (CEM-SS cells): 97%

Compound: CC(C)[C@H](NC(=O)[C@H](CC(=O)O)NC(=O)[C@H](CCCCN)NC(=O)[C@@H](N)CCCN=C(N)N)C(=O)N[C@@H](Cc1ccc(O)cc1)C(=O)O [Thymopentin, Arg-Lys-Asp-Val-Tyr-OH] (H-RKDVY-OH)
- % of induction (Human A549 cells [1]): 0.6%
- % inhibition (Pseudomonas aeruginosa): 0.0%
- % inhibition of tube formation (HUVEC): 31%
- % inhibition (MRSA): 0.0%
- viability at 144 h [2]: 100%
- % prevention of ceramide induced apoptosis (Human A549 cells [3]): 0.0%
- % of SAC/IL2 induced control [4]: 94.4%
- % of LPS induction [5]: 108.9%
- % inhibition of HBV replication in HEP G2 cells [6]: 6.2%
- % of PHA induced control [7]: 89.1%
- viability at 10 micrograms per ml [8]: 100%
- viability at 144 h, 10 micrograms per ml [9]: 100%
- % inhibition of migration [10]: 7%
- % plaque reduction (HCMV strain AD169): 1.4%
- % inhibition (Streptococcus pneumoniae): 0.0%
- IFNγ spleen cells; TH1 response (% of control) [11]: 62.0 % of control
- IL-2 spleen cells (% of control) [11]: 122.2 % of control
- IL-4 spleen cells; TH2 response (% of control) [11]: 170.6 % of control
- IL-5 spleen cells; TH2 response (% of control) [11]: 73.8 % of control
- TNF-a spleen cells; TH1 response (% of control) [11]: 109.6 % of control
- % CPE reduction in HIV-1 infected CEM-SS cells (HIV-1IIIB): 0.0%
- Cell cycle analysis G0/G1 (Human A549 cells [12]): 54.6
- Cell cycle analysis G2/M (Human A549 cells [12]): 10.7
- Cell cycle analysis S (Human A549 cells [12]): 34.8
